# According to ChEMBL document CHEMBL4483862, “Open-source discovery of chemical leads for next-generation chemoprotective antimalarials” (2018):
# Test system: Plasmodium berghei
# Test: Luciferase/luciferin-expressing antifolate-resistant parasites were used to infect a culture of HepG2 cells that were pre-incubated with compounds. Infected hepatocytes emit light due to the luciferase reaction. Assay results are presented as the percent inhibition of light emission compared to control. […]
# Format: functional
# Conditions: sporozoite; for IC90: read-out: LUCIFERASE INFECTION ASSAY - IC90
# [1] = read-out: LUCIFERASE INFECTION ASSAY - IC50
Compound,IC90,other results
O=C(c1cnc(Nc2cccc(C(F)(F)F)c2)[nH]1)c1ccccc1O,7.03 µM,"IC50 (PBLUC_HILL_SLOPE 5.05, PBLUC_R_SQUARED 0.685, read-out: LUCIFERASE INFECTION ASSAY - IC50): 4.55 µM"
CCOc1cc(/C=C/C(=O)c2ccc(N(C)C)cc2)cc(Br)c1OCC(=O)N(C)C,4.93 µM,IC50 [1]: 2.32 µM
COc1cccc(C(=O)CC2C(=O)Nc3ccccc32)c1 (stereo not given),11.4 µM,"IC50 (HEPG2TOX_HILL_SLOPE 18.2, HEPG2TOX_R_SQUARED 0.892, PBLUC_HILL_SLOPE 11.5, PBLUC_R_SQUARED 0.65, read-out: LUCIFERASE INFECTION ASSAY - IC50): 9.38 µM"
O=C(Nc1cc(Cl)ccc1N1CCOCC1)c1ccccc1NS(=O)(=O)c1ccc(Br)s1,1.16 µM,"IC50 (FFLUC_HILL_SLOPE 16.2, FFLUC_R_SQUARED 0.517, HEPG2TOX_HILL_SLOPE 1.46, HEPG2TOX_R_SQUARED 0.905, PBLUC_HILL_SLOPE 14.3, PBLUC_R_SQUARED 0.479, read-out: LUCIFERASE INFECTION ASSAY - IC50): 0.994 µM"
CC1CCN(Cc2nc(SC3CCCC3)c3c4c(sc3n2)CCC4)CC1,> 10 µM,"IC50 (PBLUC_HILL_SLOPE 9.85, PBLUC_R_SQUARED 0.167, read-out: LUCIFERASE INFECTION ASSAY - IC50): 9.59 µM"
COC(=O)/C(O)=C/C(=O)c1c(C)[nH]c(C(=O)OC)c1C,> 10 µM,IC50 [1]: > 10 µM
O=C(Nc1ccccc1N1CCOCC1)c1ccc2noc(-c3ccccc3)c2c1,> 10 µM,"IC50 (FFLUC_HILL_SLOPE 1.87, FFLUC_R_SQUARED 0.584, PBLUC_HILL_SLOPE 3.85, PBLUC_R_SQUARED 0.483, read-out: LUCIFERASE INFECTION ASSAY - IC50): 7.96 µM"
O=C(N/N=C/c1cc(Cl)ccc1O)N/N=C/c1cc(Cl)ccc1O,> 8.99 µM,"IC50 (HEPG2TOX_HILL_SLOPE 7.47, HEPG2TOX_R_SQUARED 0.53, read-out: LUCIFERASE INFECTION ASSAY - IC50): > 8.99 µM"
N#Cc1c(CCCNC(=O)/C=C/c2ccc(Cl)c(C(F)(F)F)c2)nn(-c2ccc(F)cc2)c1N,> 10 µM,IC50 [1]: > 10 µM
CC(Cc1cccs1)N(Cc1ccc(Cl)cc1)C(=O)c1cc(S(=O)(=O)N2CCOCC2)c(Cl)cc1Cl (stereo not given),> 10 µM,"IC50 (HEPG2TOX_HILL_SLOPE 6.93, HEPG2TOX_R_SQUARED 0.0438, read-out: LUCIFERASE INFECTION ASSAY - IC50): > 10 µM"
Cc1cc(C(=O)N(C(=O)NC2CCCCC2)C2CCCCC2)c(C)n1-c1ccccc1,8.67 µM,IC50 [1]: 1.12 µM
Cc1c(-c2ccccc2)sc(N)c1C#N,> 15.4 µM,"IC50 (HEPG2TOX_HILL_SLOPE 1.71, HEPG2TOX_R_SQUARED 0.831, PBLUC_HILL_SLOPE 15.7, PBLUC_R_SQUARED 0.066, read-out: LUCIFERASE INFECTION ASSAY - IC50): 14.9 µM"
CC(=O)c1cccc(-c2cnc3ccc(-c4cccc(N)c4)nn23)c1,3.85 µM,"IC50 (HEPG2TOX_HILL_SLOPE 0.765, HEPG2TOX_R_SQUARED 0.894, PBLUC_HILL_SLOPE 1.06, PBLUC_R_SQUARED 0.553, read-out: LUCIFERASE INFECTION ASSAY - IC50): 0.481 µM"
NC(=O)c1ccsc1NC(=O)c1cc(-c2ccccc2)nn1-c1ccccc1,3.68 µM,"IC50 (PBLUC_HILL_SLOPE 12.3, PBLUC_R_SQUARED 0.697, read-out: LUCIFERASE INFECTION ASSAY - IC50): 3.08 µM"
CC(=O)N(c1ccc(Cl)c(Cl)c1)c1nc(CN2CCCCCC2)cs1,9.28 µM,IC50 [1]: 4.55 µM
Cc1ccc(-n2nc(C)c(C(=O)Nc3ccccc3N3CCN(C)CC3)n2)c(C)c1,> 10 µM,"IC50 (HEPG2TOX_HILL_SLOPE 0.399, HEPG2TOX_R_SQUARED 0.0602, read-out: LUCIFERASE INFECTION ASSAY - IC50): > 10 µM"
COc1cc(OC)cc(-c2cnc3cnc(-c4ccc(N5CCN(C)CC5)nc4)cn23)c1,> 7.67 µM,"IC50 (HEPG2TOX_HILL_SLOPE 4.69, HEPG2TOX_R_SQUARED 0.215, PBLUC_HILL_SLOPE 12, PBLUC_R_SQUARED 0.625, read-out: LUCIFERASE INFECTION ASSAY - IC50): 7.27 µM"
Cc1cc(SCCN)c2cc(F)ccc2n1,> 14 µM,"IC50 (HEPG2TOX_HILL_SLOPE 2.08, HEPG2TOX_R_SQUARED 0.947, PBLUC_HILL_SLOPE 2.61, PBLUC_R_SQUARED 0.644, read-out: LUCIFERASE INFECTION ASSAY - IC50): 6.26 µM"
CCCC/C=C/c1cnc2ccc(NC(CC)CO)nn12 (stereo not given),> 11.4 µM,"IC50 (PBLUC_HILL_SLOPE 1.69, PBLUC_R_SQUARED 0.254, read-out: LUCIFERASE INFECTION ASSAY - IC50): 7.08 µM"
CN(C)CCNC(=O)c1ccc(-c2cn3c(-c4ccc(Cl)cc4)cnc3cn2)cc1,3.79 µM,"IC50 (HEPG2TOX_HILL_SLOPE 1.7, HEPG2TOX_R_SQUARED 0.889, PBLUC_HILL_SLOPE 9.39, PBLUC_R_SQUARED 0.389, read-out: LUCIFERASE INFECTION ASSAY - IC50): 3 µM"

Compound,IC90,other results
COC(=O)c1cc(Br)ccc1NC(=O)c1cccc(S(=O)(=O)N(Cc2ccccc2)c2ccccc2Cl)c1,> 10 µM,IC50 [1]: > 10 µM
CS(=O)(=O)Nc1cccc(CNC(=O)c2cccc3c4c([nH]c23)CCCC4)c1,> 10 µM,"IC50 (HEPG2TOX_HILL_SLOPE 8.62, HEPG2TOX_R_SQUARED 0.723, PBLUC_HILL_SLOPE 1.82, PBLUC_R_SQUARED 0.711, read-out: LUCIFERASE INFECTION ASSAY - IC50): 5.31 µM"
c1ccc2cc(OCCNc3ncnc4sccc34)ccc2c1,3.89 µM,"IC50 (HEPG2TOX_HILL_SLOPE 0.735, HEPG2TOX_R_SQUARED 0.741, PBLUC_HILL_SLOPE 1.1, PBLUC_R_SQUARED 0.73, read-out: LUCIFERASE INFECTION ASSAY - IC50): 0.524 µM"
CCOC(=O)c1c(S(=O)(=O)N2CCN(Cc3ccccc3)CC2)c(-c2ccccc2)n(-c2ccccc2)c1C,> 6.07 µM,"IC50 (FFLUC_HILL_SLOPE 3.32, FFLUC_R_SQUARED 0.581, read-out: LUCIFERASE INFECTION ASSAY - IC50): > 6.07 µM"
O=C(NCC#Cc1ccccc1)c1cccc2cccnc12,> 10 µM,IC50 [1]: > 10 µM
O=C(Cc1coc2cc3c(cc12)CCC3)OCc1nccn1C(F)F,> 10 µM,"IC50 (PBLUC_HILL_SLOPE 0.616, PBLUC_R_SQUARED 0.411, read-out: LUCIFERASE INFECTION ASSAY - IC50): > 10 µM"
O=C(CC1S/C(=N\c2ccccn2)NC1=O)Nc1ccc(Cl)cc1 (stereo not given),> 10 µM,"IC50 (PBLUC_HILL_SLOPE 2.4, PBLUC_R_SQUARED 0.685, read-out: LUCIFERASE INFECTION ASSAY - IC50): 5.95 µM"
NC(=O)c1nc[nH]c1NC(=O)Cc1ccc(-c2ccccc2)cc1,> 10 µM,"IC50 (PBLUC_HILL_SLOPE 1, PBLUC_R_SQUARED 0.17, read-out: LUCIFERASE INFECTION ASSAY - IC50): > 10 µM"
Cc1cccc(Cn2nc(C(C)(C)C)cc2C(=O)Nc2ccc(C(C)(C)C)cc2)c1,> 8.18 µM,"IC50 (FFLUC_HILL_SLOPE 3.48, FFLUC_R_SQUARED 0.696, read-out: LUCIFERASE INFECTION ASSAY - IC50): > 8.18 µM"
Cc1ccc(NC(=O)Cn2nnc(-c3ccccc3)n2)cc1S(=O)(=O)N1CCCCCC1,> 10 µM,"IC50 (HEPG2TOX_HILL_SLOPE 11.8, HEPG2TOX_R_SQUARED 0.86, PBLUC_HILL_SLOPE 22, PBLUC_R_SQUARED 0.334, read-out: LUCIFERASE INFECTION ASSAY - IC50): 9.07 µM"
c1ccc(CSc2ncc(-c3nnnn3-c3ccccc3)c(-c3ccccc3)n2)cc1,> 7.81 µM,"IC50 (FFLUC_HILL_SLOPE 10.9, FFLUC_R_SQUARED 0.438, read-out: LUCIFERASE INFECTION ASSAY - IC50): > 7.81 µM"
Cc1c(OCc2ccc(Br)cc2)ccc2c1OC(C)(C)C=C2,0.652 µM,IC50 [1]: 0.199 µM
Cn1nc(-c2ccc(Cl)cc2)cc1N,> 15.9 µM,"IC50 (FFLUC_HILL_SLOPE 24.2, FFLUC_R_SQUARED 0.094, read-out: LUCIFERASE INFECTION ASSAY - IC50): > 15.9 µM"
CNc1snc(C)c1C(=O)N(C)Cc1ccc(OC(F)(F)F)cc1,2.72 µM,"IC50 (HEPG2TOX_HILL_SLOPE 0.114, HEPG2TOX_R_SQUARED 0.0245, PBLUC_HILL_SLOPE 2.54, PBLUC_R_SQUARED 0.592, read-out: LUCIFERASE INFECTION ASSAY - IC50): 1.15 µM"
COc1ccc(-c2cc(C(=O)NNC(=O)CC(C)C)[nH]n2)cc1,> 10 µM,IC50 [1]: > 10 µM
CCN(Cc1ccc2c(c1)OCO2)C(=O)c1oc2c(F)cccc2c1C,> 10 µM,"IC50 (FFLUC_HILL_SLOPE 1.31, FFLUC_R_SQUARED 0.0559, read-out: LUCIFERASE INFECTION ASSAY - IC50): > 10 µM"
COc1ccc(-c2csc(NC(=O)c3ccc(Cl)c(S(=O)(=O)N4CCc5ccccc54)c3)n2)cc1OC,> 10 µM,"IC50 (FFLUC_HILL_SLOPE 2.97, FFLUC_R_SQUARED 0.574, read-out: LUCIFERASE INFECTION ASSAY - IC50): > 10 µM"
Cc1csc(C(C#N)C(=O)CSc2nc(-c3ccc(Br)cc3)nc3ccccc23)n1 (stereo not given),> 10 µM,"IC50 (FFLUC_HILL_SLOPE 1.1, FFLUC_R_SQUARED 0.67, read-out: LUCIFERASE INFECTION ASSAY - IC50): > 10 µM"
CCc1ccc(C(=O)Nc2cccc(NC(=O)c3ccccc3C)c2)cc1,1.14 µM,"IC50 (HEPG2TOX_HILL_SLOPE 1.42, HEPG2TOX_R_SQUARED 0.919, PBLUC_HILL_SLOPE 4.98, PBLUC_R_SQUARED 0.845, read-out: LUCIFERASE INFECTION ASSAY - IC50): 0.735 µM"
COc1cc(-c2cnc3cnc(-c4ccc(N5CCN(C)CC5)nc4)cn23)ccc1O,> 7.92 µM,"IC50 (PBLUC_HILL_SLOPE 8.9, PBLUC_R_SQUARED 0.156, read-out: LUCIFERASE INFECTION ASSAY - IC50): 7.05 µM"
